Measured values from ChEMBL document CHEMBL1201862, “PubChem BioAssay data set” (2004).
Calls of active or inactive are those of the source.

Tests used:
LIM domain kinase 1 = LIM domain kinase 1 (Homo sapiens, UniProt P53667); test: Navigating the Kinome. Panel member name: LIMK1; format: functional
[1] = Vero cell cytotoxicity, dose response, cytotoxicity control for M. tuberculosis growth inhibitor project, Vero cells, purified and synthesized compounds, set 4 (AID 504854); format: functional; details: Mycobacterium tuberculosis
[2] = THP-1 cell cytotoxicity, cytotoxicity control, set 4 (AID 504911); format: functional; details: Mycobacterium tuberculosis
[3] = cytotoxicity toward NIH3T3 fibroblasts, dose response, counter-screen, cell-based, ATP luminescence, mouse fibroblasts (AID 2010); format: functional;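 note: cells exposed to compound for about 90 hours before reading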
Cysteine protease ATG4B = Cysteine protease ATG4B (Homo sapiens, UniProt Q9Y4P1); format: functional;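 note: Fluorescence-based dose-response confirmation assay measuring inhibition of ATG4B activity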
Cysteine protease ATG4B, sequence (Q9Y4P1 whole entry): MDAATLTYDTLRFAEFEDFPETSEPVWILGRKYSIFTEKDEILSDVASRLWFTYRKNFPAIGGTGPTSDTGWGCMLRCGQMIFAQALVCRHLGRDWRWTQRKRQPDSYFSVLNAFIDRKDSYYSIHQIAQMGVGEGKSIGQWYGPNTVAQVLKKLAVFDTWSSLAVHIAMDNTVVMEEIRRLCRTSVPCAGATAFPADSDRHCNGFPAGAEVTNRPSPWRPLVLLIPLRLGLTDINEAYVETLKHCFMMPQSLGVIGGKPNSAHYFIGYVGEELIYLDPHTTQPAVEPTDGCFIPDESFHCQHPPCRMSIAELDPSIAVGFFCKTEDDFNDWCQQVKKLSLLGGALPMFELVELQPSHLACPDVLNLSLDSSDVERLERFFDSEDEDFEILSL

Phospholipase A2 = Phospholipase A2 (Homo sapiens, UniProt P04054); format: functional;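 note: confirmatory dose-response counterscreen on phospholipase A2, testing hits that came from an ultra-high-throughput screen for ATG4B inhibitors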
Phospholipase A2, sequence (P04054 whole entry): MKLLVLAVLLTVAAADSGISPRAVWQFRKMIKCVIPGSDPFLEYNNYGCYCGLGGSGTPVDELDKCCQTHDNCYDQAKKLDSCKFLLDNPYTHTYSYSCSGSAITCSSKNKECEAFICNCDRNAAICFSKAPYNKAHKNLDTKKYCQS

[4] = inhibitors of intracellular T. cruzi replication, confirmation, NIH3T3 host cells, beta-gal luminescence (AID 2044); format: functional, cell-based;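 note: intracellular parasites grown in NIH/3T3 mouse fibroblasts as host cells; luminescent beta-galactosidase reporter signal from transgenic T. cruzi replicating inside host cells; inhibitors lower the luminescence signal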
[5] = target: Glycogen synthase kinase-3 beta (Homo sapiens, UniProt P49841); test: Inhibition of Human GSK-3 beta Activity Measured in Biochemical System Using Microfluidics - 2063-05_Inhibitor_Dose_DryPowder_Activity_Set2. [Related pubchem assays (depositor defined):AID2709]
Glycogen synthase kinase-3 beta, sequence (P49841 whole entry): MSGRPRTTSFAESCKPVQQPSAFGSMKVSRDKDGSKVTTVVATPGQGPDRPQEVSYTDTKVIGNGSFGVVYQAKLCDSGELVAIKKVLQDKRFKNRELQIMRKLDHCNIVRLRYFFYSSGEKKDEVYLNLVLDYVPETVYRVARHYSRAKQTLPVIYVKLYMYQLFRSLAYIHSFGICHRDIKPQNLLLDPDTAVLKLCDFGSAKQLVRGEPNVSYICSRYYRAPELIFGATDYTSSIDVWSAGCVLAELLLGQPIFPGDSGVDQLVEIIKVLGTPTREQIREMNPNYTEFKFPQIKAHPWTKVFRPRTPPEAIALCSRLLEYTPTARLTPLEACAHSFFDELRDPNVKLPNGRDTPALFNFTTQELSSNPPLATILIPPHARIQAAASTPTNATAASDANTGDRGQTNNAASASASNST

[6] = target: Glycogen synthase kinase-3 alpha (Homo sapiens, UniProt P49840); test: Inhibition of Human GSK-3 alpha Activity Measured in Biochemical System Using Microfluidics - 2063-06_Inhibitor_Dose_DryPowder_Activity_Set2. [Related pubchem assays (depositor defined):AID2709]
Glycogen synthase kinase-3 alpha, sequence (P49840 whole entry): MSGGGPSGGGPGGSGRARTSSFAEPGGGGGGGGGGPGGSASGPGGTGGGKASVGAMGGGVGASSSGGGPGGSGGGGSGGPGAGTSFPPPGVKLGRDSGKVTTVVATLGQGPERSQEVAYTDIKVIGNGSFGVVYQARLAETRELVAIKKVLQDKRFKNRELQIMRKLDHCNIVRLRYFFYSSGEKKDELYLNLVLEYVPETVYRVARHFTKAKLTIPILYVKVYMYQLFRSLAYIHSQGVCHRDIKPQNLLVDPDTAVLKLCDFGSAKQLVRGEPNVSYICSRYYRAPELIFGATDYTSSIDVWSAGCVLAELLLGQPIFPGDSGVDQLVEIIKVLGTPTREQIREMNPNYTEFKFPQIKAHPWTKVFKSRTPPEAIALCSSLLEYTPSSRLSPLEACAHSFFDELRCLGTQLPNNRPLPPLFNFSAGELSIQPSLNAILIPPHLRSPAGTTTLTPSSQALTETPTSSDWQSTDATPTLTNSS

Protein RecA = target: T1, Protein RecA (Mycobacterium tuberculosis, UniProt P9WHJ3); test: Fluorescence Cell-Free Homogeneous Dose Retest to Identify Inhibitors of RecA-Intein Splicing Activity. [Related pubchem assays (depositor defined):AID2097, AID2223, AID489010, AID492950]; format: functional
T1 sequence (P9WHJ3 whole entry): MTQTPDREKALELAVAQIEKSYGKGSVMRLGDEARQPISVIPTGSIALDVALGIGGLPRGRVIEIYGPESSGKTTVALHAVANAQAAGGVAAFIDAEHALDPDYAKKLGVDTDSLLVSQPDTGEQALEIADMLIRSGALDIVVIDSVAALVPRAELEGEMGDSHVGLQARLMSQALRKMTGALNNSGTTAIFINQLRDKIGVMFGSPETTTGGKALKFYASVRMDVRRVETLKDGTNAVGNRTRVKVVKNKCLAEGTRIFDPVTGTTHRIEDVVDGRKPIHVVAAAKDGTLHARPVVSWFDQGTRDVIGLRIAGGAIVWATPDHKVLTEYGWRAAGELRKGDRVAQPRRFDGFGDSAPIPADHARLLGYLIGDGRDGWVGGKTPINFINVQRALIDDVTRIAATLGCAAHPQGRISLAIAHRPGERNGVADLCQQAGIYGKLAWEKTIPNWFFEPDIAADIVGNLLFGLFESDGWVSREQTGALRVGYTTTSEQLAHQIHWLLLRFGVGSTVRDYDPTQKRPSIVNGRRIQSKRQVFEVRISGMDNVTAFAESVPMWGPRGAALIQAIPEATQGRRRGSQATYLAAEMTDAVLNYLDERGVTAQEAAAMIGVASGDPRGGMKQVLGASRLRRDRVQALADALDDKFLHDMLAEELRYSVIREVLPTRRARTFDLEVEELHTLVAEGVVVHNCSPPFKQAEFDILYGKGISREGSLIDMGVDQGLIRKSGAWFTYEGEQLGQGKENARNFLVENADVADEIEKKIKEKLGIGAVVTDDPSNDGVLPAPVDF

[7] = target: 1-acylglycerol-3-phosphate O-acyltransferase ABHD5/Perilipin-5 (Homo sapiens, UniProt Q00G26+Q8WTS1); test: Luminescence-based biochemical high throughput dose response assay for inhibitors of the interaction of the lipase co-activator protein, abhydrolase domain containing 5 (ABHD5) with perilipin-5 (MLDP; PLIN5) (2K validation set). [Related pubchem assays (depositor defined):AID493035, AID493241]
[8] = target: Protein-arginine deiminase type-4 (Homo sapiens, UniProt Q9UM07); test: human PAD4 inhibitor potency, dose response, biochemical, fluorescence readout (AID 492970)
Protein-arginine deiminase type-4, sequence (Q9UM07 whole entry): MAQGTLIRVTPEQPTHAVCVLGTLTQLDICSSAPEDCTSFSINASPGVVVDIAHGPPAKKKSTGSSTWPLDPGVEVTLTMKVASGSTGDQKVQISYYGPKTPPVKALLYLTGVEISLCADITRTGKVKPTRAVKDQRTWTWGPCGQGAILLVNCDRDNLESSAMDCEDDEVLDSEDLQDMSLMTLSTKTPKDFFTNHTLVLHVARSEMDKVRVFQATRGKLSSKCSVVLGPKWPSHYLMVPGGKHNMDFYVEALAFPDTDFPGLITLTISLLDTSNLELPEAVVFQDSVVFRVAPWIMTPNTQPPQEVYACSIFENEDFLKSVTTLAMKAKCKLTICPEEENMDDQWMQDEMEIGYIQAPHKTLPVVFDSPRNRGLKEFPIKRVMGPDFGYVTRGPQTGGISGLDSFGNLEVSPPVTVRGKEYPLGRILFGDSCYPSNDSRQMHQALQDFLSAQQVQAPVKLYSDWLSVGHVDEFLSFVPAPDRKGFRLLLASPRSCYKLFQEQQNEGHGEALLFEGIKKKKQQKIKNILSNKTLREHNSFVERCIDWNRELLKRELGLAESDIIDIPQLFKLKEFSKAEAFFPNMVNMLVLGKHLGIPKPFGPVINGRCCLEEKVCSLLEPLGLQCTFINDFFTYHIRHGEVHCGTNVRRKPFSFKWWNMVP

[9] = target: Voltage-gated inwardly rectifying potassium channel KCNH2 (Homo sapiens, UniProt Q12809); details: Potency;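 note: confirmatory quantitative high-throughput screen measuring inhibition of hERG channel activity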
Voltage-gated inwardly rectifying potassium channel KCNH2, sequence (Q12809 whole entry): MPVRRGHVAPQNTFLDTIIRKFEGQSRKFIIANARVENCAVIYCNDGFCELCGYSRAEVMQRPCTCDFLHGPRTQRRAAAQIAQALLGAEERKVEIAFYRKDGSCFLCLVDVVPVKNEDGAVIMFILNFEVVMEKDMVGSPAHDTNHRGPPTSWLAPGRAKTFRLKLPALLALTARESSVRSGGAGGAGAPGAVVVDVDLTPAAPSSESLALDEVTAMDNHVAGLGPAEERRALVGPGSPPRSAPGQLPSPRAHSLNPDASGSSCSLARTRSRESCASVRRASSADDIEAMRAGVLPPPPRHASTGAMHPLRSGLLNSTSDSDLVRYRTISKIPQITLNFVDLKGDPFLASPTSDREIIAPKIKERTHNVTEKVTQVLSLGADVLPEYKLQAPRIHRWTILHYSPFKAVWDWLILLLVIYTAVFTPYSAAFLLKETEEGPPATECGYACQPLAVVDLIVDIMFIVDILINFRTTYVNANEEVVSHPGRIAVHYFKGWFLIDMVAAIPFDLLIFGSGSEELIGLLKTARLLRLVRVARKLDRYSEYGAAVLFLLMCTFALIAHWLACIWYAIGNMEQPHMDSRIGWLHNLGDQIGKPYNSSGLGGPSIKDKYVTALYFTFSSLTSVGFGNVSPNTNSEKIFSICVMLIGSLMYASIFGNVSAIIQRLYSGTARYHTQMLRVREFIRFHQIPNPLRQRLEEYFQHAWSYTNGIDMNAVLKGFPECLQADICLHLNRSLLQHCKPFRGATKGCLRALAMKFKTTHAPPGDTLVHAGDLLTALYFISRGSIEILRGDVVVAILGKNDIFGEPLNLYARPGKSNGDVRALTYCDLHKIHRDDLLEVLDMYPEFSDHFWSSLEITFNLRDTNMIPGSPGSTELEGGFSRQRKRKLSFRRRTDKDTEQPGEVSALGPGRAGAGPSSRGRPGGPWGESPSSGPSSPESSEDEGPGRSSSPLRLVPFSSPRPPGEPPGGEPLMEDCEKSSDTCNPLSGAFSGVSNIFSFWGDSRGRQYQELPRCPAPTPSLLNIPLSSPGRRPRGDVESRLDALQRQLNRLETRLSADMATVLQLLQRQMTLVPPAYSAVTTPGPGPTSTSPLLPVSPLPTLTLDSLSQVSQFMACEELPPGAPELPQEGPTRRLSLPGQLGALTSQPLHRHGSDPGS

[10] = target: T2, Replicative DNA helicase DnaB (Mycobacterium tuberculosis, UniProt P9WMR3); test: DnaB intein splicing inhibitors, dose response, biochemical, cell-free fluorescence (AID 449749); format: functional
T2 sequence (P9WMR3 whole entry): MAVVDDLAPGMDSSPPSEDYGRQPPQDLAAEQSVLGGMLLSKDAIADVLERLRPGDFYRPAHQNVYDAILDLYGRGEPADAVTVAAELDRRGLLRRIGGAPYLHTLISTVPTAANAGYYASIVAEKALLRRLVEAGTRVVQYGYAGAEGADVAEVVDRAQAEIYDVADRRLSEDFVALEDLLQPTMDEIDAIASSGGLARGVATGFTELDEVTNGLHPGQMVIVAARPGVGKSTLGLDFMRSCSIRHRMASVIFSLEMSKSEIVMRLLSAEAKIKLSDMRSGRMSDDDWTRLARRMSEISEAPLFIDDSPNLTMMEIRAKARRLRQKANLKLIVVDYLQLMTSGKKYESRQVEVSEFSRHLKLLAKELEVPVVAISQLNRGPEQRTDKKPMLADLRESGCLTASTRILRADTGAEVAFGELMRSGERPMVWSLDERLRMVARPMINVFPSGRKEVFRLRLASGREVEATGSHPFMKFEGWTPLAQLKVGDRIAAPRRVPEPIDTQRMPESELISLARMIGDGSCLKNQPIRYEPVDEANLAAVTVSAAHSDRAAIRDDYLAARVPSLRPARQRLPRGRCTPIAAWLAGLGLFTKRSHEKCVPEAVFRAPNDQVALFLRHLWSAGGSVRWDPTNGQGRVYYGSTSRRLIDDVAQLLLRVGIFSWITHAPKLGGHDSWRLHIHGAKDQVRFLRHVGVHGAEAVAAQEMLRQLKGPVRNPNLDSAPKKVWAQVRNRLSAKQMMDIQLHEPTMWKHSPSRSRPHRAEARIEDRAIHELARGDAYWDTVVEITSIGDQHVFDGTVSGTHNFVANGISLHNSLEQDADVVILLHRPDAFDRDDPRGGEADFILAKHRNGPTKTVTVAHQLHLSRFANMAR

Perilipin-1/ABHD5 = Perilipin-1/ABHD5 (Homo sapiens, UniProt O60240+Q8WTS1); test: Luminescence-based biochemical high throughput dose response assay for inhibitors of the interaction of the lipase co-activator protein, abhydrolase domain containing 5 (ABHD5) with perilipin-1 (PLIN1) (2K validation set). [Related pubchem assays (depositor defined):AID493027, AID493057]
Perilipin-1/ABHD5, sequence (Q8WTS1 whole entry, the tested form may be a part): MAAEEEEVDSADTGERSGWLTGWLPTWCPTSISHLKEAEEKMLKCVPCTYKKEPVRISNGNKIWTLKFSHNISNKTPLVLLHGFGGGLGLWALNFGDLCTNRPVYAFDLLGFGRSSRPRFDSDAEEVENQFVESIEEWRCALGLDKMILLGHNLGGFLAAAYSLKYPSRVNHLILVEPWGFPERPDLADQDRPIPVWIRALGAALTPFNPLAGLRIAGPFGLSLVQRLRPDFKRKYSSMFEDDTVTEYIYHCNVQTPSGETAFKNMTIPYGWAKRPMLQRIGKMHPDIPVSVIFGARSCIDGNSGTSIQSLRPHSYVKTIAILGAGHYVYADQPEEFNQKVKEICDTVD
Perilipin-1/ABHD5, sequence (O60240 whole entry, the tested form may be a part): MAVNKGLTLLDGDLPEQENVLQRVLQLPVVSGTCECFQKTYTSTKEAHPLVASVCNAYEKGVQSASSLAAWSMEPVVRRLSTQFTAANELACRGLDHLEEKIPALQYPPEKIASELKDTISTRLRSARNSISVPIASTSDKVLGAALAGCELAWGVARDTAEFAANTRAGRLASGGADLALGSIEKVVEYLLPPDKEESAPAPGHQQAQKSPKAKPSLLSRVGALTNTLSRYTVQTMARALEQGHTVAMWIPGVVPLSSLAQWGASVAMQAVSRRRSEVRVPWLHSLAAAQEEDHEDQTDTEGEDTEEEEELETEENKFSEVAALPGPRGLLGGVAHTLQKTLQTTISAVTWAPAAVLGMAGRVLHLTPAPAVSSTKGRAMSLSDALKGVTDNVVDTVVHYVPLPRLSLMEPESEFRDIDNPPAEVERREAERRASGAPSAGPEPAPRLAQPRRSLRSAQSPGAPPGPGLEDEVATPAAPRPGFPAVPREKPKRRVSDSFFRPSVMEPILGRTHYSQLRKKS

LIM domain kinase 1, sequence (P53667 whole entry, the tested form may be a part): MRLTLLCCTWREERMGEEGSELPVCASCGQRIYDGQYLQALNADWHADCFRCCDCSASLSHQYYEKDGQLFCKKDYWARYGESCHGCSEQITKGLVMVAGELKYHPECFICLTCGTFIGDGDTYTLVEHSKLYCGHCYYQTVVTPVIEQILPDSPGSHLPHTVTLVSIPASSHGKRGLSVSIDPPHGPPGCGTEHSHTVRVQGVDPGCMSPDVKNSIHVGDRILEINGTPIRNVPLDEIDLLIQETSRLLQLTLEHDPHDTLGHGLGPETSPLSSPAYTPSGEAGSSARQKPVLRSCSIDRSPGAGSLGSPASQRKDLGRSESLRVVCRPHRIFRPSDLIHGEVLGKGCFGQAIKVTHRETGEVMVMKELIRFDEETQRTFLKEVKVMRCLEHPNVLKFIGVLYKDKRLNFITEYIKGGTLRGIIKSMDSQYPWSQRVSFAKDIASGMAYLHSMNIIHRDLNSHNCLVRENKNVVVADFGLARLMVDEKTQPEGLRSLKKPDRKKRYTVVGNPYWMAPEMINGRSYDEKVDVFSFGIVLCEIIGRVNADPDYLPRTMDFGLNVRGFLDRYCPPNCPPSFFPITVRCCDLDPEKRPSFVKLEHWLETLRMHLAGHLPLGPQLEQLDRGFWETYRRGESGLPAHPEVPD

Compound: CCc1ccc(NC(=O)c2cnn3c(-c4ccccc4)ccnc23)cc1
- Ki (LIM domain kinase 1): 3.16 µM (active)

Compound: O=C(CSc1nc2ccccc2c(=O)[nH]1)NC1CCCC1
- CC50 [1]: > 100 µM (active)
- CC50 [2]: > 100 µM (active)

Compound: CC(C)C[C@H](NC(=O)OC(C)(C)C)C(=O)N/N=C/C1=Cc2ccccc2OC1C (stereo not given in full)
- EC50 [3]: > 60 µM (not active)
- IC50 (Cysteine protease ATG4B): 37.1 µM (inactive)
- IC50 (Phospholipase A2): 15.4 µM (active)
- EC50 [4]: 3.34 µM (active)

Compound: O=C(Nc1ccsc1C(=O)NC1CCCCC1)c1ccc(F)cc1
- AC50 [5]: 6.28 µM (active)
- AC50 [6]: 24.9 µM (active)

Compound: Cc1ccc(S(=O)(=O)N[C@@H](Cc2ccccc2)C(=O)CCl)cc1 [TPCK]
- EC50 (Protein RecA): 0.712 µM (active)
- IC50 [7]: 1.9 µM (active)
- IC50 [8]: 13 µM (inactive)
- AC50 [9]: 12.6 µM (inconclusive)
- AC50 [10]: 2.03 µM (active)
- IC50 (Perilipin-1/ABHD5): 1.87 µM (active)
